Read-outs that look alike come from different tables or passages of the source.
What was measured:
[1] = biological target: T1, NAMPT (Homo sapiens, UniProt P43490); test: Biochemical inhibition assay: NAMPT enzymatic reaction, NMN quantified by mass spectrometry; details: read-out: Biochem IC50
T1 construct: His tag; host or cells: E. coli
Outline: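 Inhibition of E. coli-expressed His-tagged human NAMPT, measured as NMN formation by mass spectrometry after a 30 min room-temperature reaction containing 1 μM NAM, 100 μM PRPP and 2.5 mM ATP.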

[2] = test system: A2780 cells; test: In-vitro cell proliferation assay (SRB), A2780 cells; type: cell-based; details: Homo sapiens, A2780, 72 h, A2780 cells, 72 hours, read-out: A2780 IC50
Outline: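 Cells were plated overnight at 37° C., 5% CO2, then exposed to serially diluted compounds (0.1% DMSO final) for 72 hours. Viable cells were measured by sulforhodamine B staining after TCA fixation, read at 570 nm; media-only background was subtracted before % inhibition was calculated.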

T1 sequence (P43490 whole entry): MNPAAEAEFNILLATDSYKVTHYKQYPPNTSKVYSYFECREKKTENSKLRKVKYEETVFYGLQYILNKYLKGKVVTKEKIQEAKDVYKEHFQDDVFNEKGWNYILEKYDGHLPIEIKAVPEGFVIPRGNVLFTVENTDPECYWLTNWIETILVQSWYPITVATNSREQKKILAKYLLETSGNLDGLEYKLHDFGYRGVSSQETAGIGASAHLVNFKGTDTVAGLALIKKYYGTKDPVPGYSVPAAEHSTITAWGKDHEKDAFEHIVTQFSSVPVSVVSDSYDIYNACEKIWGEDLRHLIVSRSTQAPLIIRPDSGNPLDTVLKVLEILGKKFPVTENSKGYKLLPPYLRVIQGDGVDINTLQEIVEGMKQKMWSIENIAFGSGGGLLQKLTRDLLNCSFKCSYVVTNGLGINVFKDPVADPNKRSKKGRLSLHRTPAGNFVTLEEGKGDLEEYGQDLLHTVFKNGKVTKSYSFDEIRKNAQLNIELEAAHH

Compound `O=C(NCc1ccc(S(=O)(=O)c2cncc(F)c2)cc1)c1cnc2[nH]ncc2c1` [N-{[4-(5-fluoropyridine-3-sulfonyl)phenyl]methyl}-1H-pyrazolo[3,4-b]pyridine-5-carboxamide] has an IC50 ([1]; NAMPT enzymatic assay) of 79.2 nM and an IC50 ([2]; SRB) of 25.4 nM.
In the case of `CCCOc1cccc(S(=O)(=O)c2ccc(CNC(=O)c3cnc4nccn4c3)cc2)c1`, the IC50 ([1]; NAMPT enzymatic reaction) is reported as 4.8 nM and the IC50 ([2]; SRB) is reported as 7.5 nM.
Work on `O=C(NCc1ccc(S(=O)(=O)c2cncc(N3CCCC3)c2)cc1)c1cnc2[nH]ncc2c1` [N-({4-[5-(pyrrolidin-1-yl)pyridine-3-sulfonyl]phenyl}methyl)-1H-pyrazolo[3,4-b]pyridine-5-carboxamide] yielded an IC50 ([1]; NAMPT enzymatic assay) of 17.9 nM and an IC50 ([2]; SRB) of 4 nM.
`Cc1c(F)cccc1S(=O)(=O)c1ccc(CNC(=O)c2cc3cnccc3[nH]2)cc1` showed an IC50 ([1]; NAMPT enzymatic reaction) of 57.6 nM and an IC50 ([2]; SRB) of 13.2 nM.
Work on `N#Cc1ccc(S(=O)(=O)c2ccc(CNC(=O)c3ccc4nccn4c3)cc2)cc1` yielded an IC50 ([1]; NAMPT enzymatic reaction) of 16 nM and an IC50 ([2]; SRB) of 14.1 nM.
`COc1cc(-n2cccn2)ccc1S(=O)(=O)c1ccc(CNC(=O)c2cc3ccncc3s2)cc1` [N-[(4-{[2-methoxy-4-(1H-pyrazol-1-yl)benzene]sulfonyl}phenyl)methyl]thieno[2,3-c]pyridine-2-carboxamide] showed an IC50 ([1]; NAMPT enzymatic reaction) of 5 nM and an IC50 ([2]; SRB assay) of 2.6 nM.
Compound `O=C(NCc1ccc(S(=O)(=O)c2cc(C(F)(F)F)ccn2)cc1)c1cnc2nccn2c1` [N-({4-[4-(trifluoromethyl)pyridine-2-sulfonyl]phenyl}methyl)imidazo[1,2-a]pyrimidine-6-carboxamide] has an IC50 ([1]; NAMPT enzymatic assay) of 8.7 nM and an IC50 ([2]; SRB) of 13 nM.
For `COc1cccc(S(=O)(=O)c2ccc(CNC(=O)c3ccc4nccn4c3)cc2)c1` [N-({4-[(3-methoxybenzene)sulfonyl]phenyl}methyl)imidazo[1,2-a]pyridine-6-carboxamide], the IC50 ([1]; NAMPT enzymatic reaction) was 4.97 nM and the IC50 ([2]; SRB) was 2.45 nM.
`Cc1ccc(S(=O)(=O)c2ccc(CNC(=O)c3cc4cnccc4[nH]3)cc2)c(Cl)c1` showed an IC50 ([1]; NAMPT enzymatic reaction) of 8 nM and an IC50 ([2]; SRB) of 2.7 nM.
`O=C(NCc1ccc(S(=O)(=O)c2cc(C(F)(F)F)ccc2OCc2ccccc2)cc1)c1cc2cnccc2[nH]1` was tested, and the IC50 ([1]; NAMPT enzymatic assay) was 130 nM and the IC50 ([2]; SRB) was 25.9 nM.
With `O=C(NCc1ccc(S(=O)(=O)c2cncc3ccccc23)cc1)c1ccc2nccn2c1` [N-{[4-(isoquinoline-4-sulfonyl)phenyl]methyl}imidazo[1,2-a]pyridine-6-carboxamide] the IC50 ([1]; NAMPT enzymatic assay) was 22.4 nM and the IC50 ([2]; SRB) was 4.1 nM.
Compound `COc1ccc(C)cc1S(=O)(=O)c1ccc(CNC(=O)c2cnc3nccn3c2)cc1` has an IC50 ([1]; NAMPT enzymatic reaction) of 3.9 nM and an IC50 ([2]; SRB) of 7.2 nM.
`O=C(NCc1ccc(S(=O)(=O)c2cccc(N3CCOCC3)c2)cc1)c1cnc2[nH]ncc2c1` showed an IC50 ([1]; NAMPT enzymatic assay) of 16.7 nM and an IC50 ([2]; SRB) of 13 nM.
Compound `COc1cccc(Cl)c1S(=O)(=O)c1ccc(CNC(=O)c2cc3ccncc3o2)cc1` has an IC50 ([1]; NAMPT enzymatic reaction) of 16.7 nM and an IC50 ([2]; SRB) of 21.4 nM.
In the case of `O=C(NCc1ccc(S(=O)(=O)CCc2ccccc2)cc1)C1=Nc2ccncc2C1` [N-({4-[(2-phenylethane)sulfonyl]phenyl}methyl)-1H-pyrrolo[3,2-c]pyridine-2-carboxamide], the IC50 ([1]; NAMPT enzymatic reaction) is reported as 11 nM and the IC50 ([2]; SRB assay) is reported as 22 nM.
Compound `COc1ccc(S(=O)(=O)c2ccc(CNC(=O)c3ccc4nccn4c3)cc2)c(OC)n1` [N-{[4-(2,6-dimethoxypyridine-3-sulfonyl)phenyl]methyl}imidazo[1,2-a]pyridine-6-carboxamide] has an IC50 ([1]; NAMPT enzymatic assay) of 43.3 nM and an IC50 ([2]; SRB) of 9.2 nM.
Compound `Cc1ccc(S(=O)(=O)c2ccc(CNC(=O)c3cnc4nccn4c3)cc2)c(C)c1` has an IC50 ([1]; NAMPT enzymatic reaction) of 2.1 nM and an IC50 ([2]; SRB) of 49.2 nM.
`Cc1ccc(S(=O)(=O)c2ccc(CNC(=O)c3cnc4[nH]ncc4c3)cc2)cc1C` was tested, and the IC50 ([1]; NAMPT enzymatic reaction) was 5.1 nM and the IC50 ([2]; SRB) was 3.4 nM.
With `CCCCOc1ccc(S(=O)(=O)c2ccc(CNC(=O)c3cc4ccncc4o3)cc2)cc1` [N-({4-[(4-butoxybenzene)sulfonyl]phenyl}methyl)furo[2,3-c]pyridine-2-carboxamide] the IC50 ([1]; NAMPT enzymatic reaction) was 6.2 nM and the IC50 ([2]; SRB) was 13 nM.
In the case of `Cn1cc2ccc(S(=O)(=O)c3ccc(CNC(=O)c4cnc5nccn5c4)cc3)cc2n1` [N-{[4-(2-methyl-2H-indazole-6-sulfonyl)phenyl]methyl}imidazo[1,2-a]pyrimidine-6-carboxamide], the IC50 ([1]; NAMPT enzymatic assay) is reported as 1.2 nM and the IC50 ([2]; SRB) is reported as 6.1 nM.
With `O=C(NCc1ccc(S(=O)(=O)c2ccc(C(F)(F)F)c(Cl)c2)cc1)c1cnc2[nH]ncc2c1` [N-[(4-{[3-chloro-4-(trifluoromethyl)benzene]sulfonyl}phenyl)methyl]-1H-pyrazolo[3,4-b]pyridine-5-carboxamide] the IC50 ([1]; NAMPT enzymatic assay) was 84.3 nM and the IC50 ([2]; SRB) was 26.4 nM.
For `Cn1cc2ccc(S(=O)(=O)c3ccc(CNC(=O)c4cc5ccncc5o4)cc3)cc2n1` [N-{[4-(2-methyl-2H-indazole-6-sulfonyl)phenyl]methyl}furo[2,3-c]pyridine-2-carboxamide], the IC50 ([1]; NAMPT enzymatic assay) was 3.4 nM and the IC50 ([2]; SRB) was 2.8 nM.
`O=C(NCc1ccc(S(=O)(=O)c2cnc3ccc(Cl)cn23)cc1)c1ccc2nccn2c1` [N-[(4-{6-chloroimidazo[1,2-a]pyridine-3-sulfonyl}phenyl)methyl]imidazo[1,2-a]pyridine-6-carboxamide] was tested, and the IC50 ([1]; NAMPT enzymatic assay) was 5.3 nM and the IC50 ([2]; SRB) was 0.4 nM.
For `O=C(NCc1ccc(S(=O)(=O)c2cccc(-c3ccc(F)c(F)c3)n2)cc1)c1cc2ccncc2s1` [N-({4-[6-(3,4-difluorophenyl)pyridine-2-sulfonyl]phenyl}methyl)thieno[2,3-c]pyridine-2-carboxamide], the IC50 ([1]; NAMPT enzymatic assay) was 2.2 nM and the IC50 ([2]; SRB) was 13.2 nM.
`O=C(NCc1ccc(S(=O)(=O)c2cnc(N3CCCC3)s2)cc1)c1cc2cnccc2[nH]1` [N-({4-[2-(pyrrolidin-1-yl)-1,3-thiazole-5-sulfonyl]phenyl}methyl)-1H-pyrrolo[3,2-c]pyridine-2-carboxamide] showed an IC50 ([1]; NAMPT enzymatic assay) of 6 nM and an IC50 ([2]; SRB) of 0.5 nM.
Work on `COc1ccc(S(=O)(=O)c2ccc(CNC(=O)c3cc4ccncc4o3)cc2)cc1` [N-({4-[(4-methoxybenzene)sulfonyl]phenyl}methyl)furo[2,3-c]pyridine-2-carboxamide] yielded an IC50 ([1]; NAMPT enzymatic reaction) of 5.5 nM and an IC50 ([2]; SRB) of 6 nM.
With `CCOc1ccc(S(=O)(=O)c2ccc(CNC(=O)c3cc4ccncc4o3)cc2)c(C)c1` the IC50 ([1]; NAMPT enzymatic reaction) was 21.6 nM and the IC50 ([2]; SRB) was 27.4 nM.
With `Cn1ncc2ccc(S(=O)(=O)c3ccc(CNC(=O)c4cc5ccncc5o4)cc3)cc21` [N-{[4-(1-methyl-1H-indazole-6-sulfonyl)phenyl]methyl}furo[2,3-c]pyridine-2-carboxamide] the IC50 ([1]; NAMPT enzymatic assay) was 4.7 nM and the IC50 ([2]; SRB) was 3.4 nM.
`COc1ccc(F)cc1S(=O)(=O)c1ccc(CNC(=O)c2cc3ccncc3s2)cc1` was tested, and the IC50 ([1]; NAMPT enzymatic reaction) was 2 nM and the IC50 ([2]; SRB) was 0.8 nM.
In the case of `CCOc1cc(F)ccc1S(=O)(=O)c1ccc(CNC(=O)c2cnc3[nH]ncc3c2)cc1`, the IC50 ([1]; NAMPT enzymatic reaction) is reported as 86.3 nM and the IC50 ([2]; SRB) is reported as 67 nM.
Compound `Cc1ccc(S(=O)(=O)c2ccc(CNC(=O)c3cnc4nccn4c3)cc2)cc1F` has an IC50 ([1]; NAMPT enzymatic reaction) of 2.3 nM and an IC50 ([2]; SRB) of 6.3 nM.
With `O=C(NCc1ccc(S(=O)(=O)N2CCCCC2)cc1)c1cccnc1` [N-{[4-(piperidine-1-sulfonyl)phenyl]methyl}pyridine-3-carboxamide] the IC50 ([1]; NAMPT enzymatic reaction) was 39 nM and the IC50 ([2]; SRB assay) was 640 nM.
With `O=C(NCc1ccc(S(=O)(=O)c2ccc(F)c(OCC(F)(F)F)c2)cc1)c1cc2ccncc2o1` the IC50 ([1]; NAMPT enzymatic assay) was 8.7 nM and the IC50 ([2]; SRB) was 25.5 nM.
In the case of `Cc1cc(-n2cccn2)ccc1S(=O)(=O)c1ccc(CNC(=O)c2cc3ccncc3s2)cc1`, the IC50 ([1]; NAMPT enzymatic assay) is reported as 1.5 nM and the IC50 ([2]; SRB) is reported as 3.1 nM.
For `O=C(NCc1ccc(S(=O)(=O)c2cccc(C(F)(F)F)c2)cc1)c1cc2ccncc2s1` [N-[(4-{[3-(trifluoromethyl)benzene]sulfonyl}phenyl)methyl]thieno[2,3-c]pyridine-2-carboxamide], the IC50 ([1]; NAMPT enzymatic reaction) was 3 nM and the IC50 ([2]; SRB assay) was 1 nM.
`COc1ccc(F)c(S(=O)(=O)c2ccc(CNC(=O)c3cc4ccncc4s3)cc2)c1` gave an IC50 ([1]; NAMPT enzymatic reaction) of 2.3 nM and an IC50 ([2]; SRB) of 12.8 nM.
In the case of `Cc1cnc(S(=O)(=O)c2ccc(CNC(=O)c3ccc4nccn4c3)cc2)n1C` [N-{[4-(1,5-dimethyl-1H-imidazole-2-sulfonyl)phenyl]methyl}imidazo[1,2-a]pyridine-6-carboxamide], the IC50 ([1]; NAMPT enzymatic assay) is reported as 30.9 nM and the IC50 ([2]; SRB) is reported as 73.1 nM.
Work on `Cn1ncc2cccc(S(=O)(=O)c3ccc(CNC(=O)c4cc5cnccc5[nH]4)cc3)c21` [N-{[4-(1-methyl-1H-indazole-7-sulfonyl)phenyl]methyl}-1H-pyrrolo[3,2-c]pyridine-2-carboxamide] yielded an IC50 ([1]; NAMPT enzymatic assay) of 37.1 nM and an IC50 ([2]; SRB) of 11.1 nM.
In the case of `O=C(NCc1ccc(S(=O)(=O)c2cnc3n2CCCCC3)cc1)c1cnc2nccn2c1` [N-[(4-{5H,6H,7H,8H,9H-imidazo[1,2-a]azepine-3-sulfonyl}phenyl)methyl]imidazo[1,2-a]pyrimidine-6-carboxamide], the IC50 ([1]; NAMPT enzymatic assay) is reported as 1.1 nM and the IC50 ([2]; SRB) is reported as 28.7 nM.
`O=C(NCc1ccc(S(=O)(=O)c2cccc(N3CCCC3)c2)cc1)c1cc2cc(O)ccc2[nH]1` showed an IC50 ([1]; NAMPT enzymatic reaction) of 144 nM and an IC50 ([2]; SRB) of 100 to 1000 nM.
In the case of `CCCOc1ccc(S(=O)(=O)c2ccc(CNC(=O)c3ccc4nccn4c3)cc2)c(C)c1`, the IC50 ([1]; NAMPT enzymatic reaction) is reported as 9.2 nM and the IC50 ([2]; SRB) is reported as 13.3 nM.
`O=C(NCc1cccc(S(=O)(=O)c2ccccc2)c1)c1cc2cnccc2[nH]1` [N-{[3-(benzenesulfonyl)phenyl]methyl}-1H-pyrrolo[3,2-c]pyridine-2-carboxamide] was tested, and the IC50 ([1]; NAMPT enzymatic reaction) was > 30000 nM and the IC50 ([2]; SRB assay) was > 30000 nM.
`CCCCOc1ccc(Cl)cc1S(=O)(=O)c1ccc(CNC(=O)c2cc3ccncc3s2)cc1` gave an IC50 ([1]; NAMPT enzymatic reaction) of 7.3 nM and an IC50 ([2]; SRB) of 10 nM.
`O=C(NCc1ccc(S(=O)(=O)c2ccccc2C(F)(F)F)cc1)c1cc2ccncc2s1` [N-[(4-{[2-(trifluoromethyl)benzene]sulfonyl}phenyl)methyl]thieno[2,3-c]pyridine-2-carboxamide] showed an IC50 ([1]; NAMPT enzymatic reaction) of 13 nM and an IC50 ([2]; SRB assay) of 26 nM.
With `COc1cccc(S(=O)(=O)c2ccc(CNC(=O)c3cnc4nccn4c3)cc2)c1OC` the IC50 ([1]; NAMPT enzymatic reaction) was 17.6 nM and the IC50 ([2]; SRB) was 77.6 nM.
Compound `COc1cc(-n2cccn2)ccc1S(=O)(=O)c1ccc(CNC(=O)c2cnc3[nH]ncc3c2)cc1` has an IC50 ([1]; NAMPT enzymatic assay) of 24.2 nM and an IC50 ([2]; SRB) of 9.4 nM.
